Experimental data published in patent US20240342292A1, “Compounds for the Degradation of EGFR Kinase” (BeiGene Switzerland GmbH, priority 2021, published 2024).

Experiments:
Del19/T790M/C797S EGFR = assay: EGFR degradation HTRF assay in H1975-clone #28 (DTC) cells; format: cell-based; settings: H1975 # 28 DTC (Del19/T790M/C797S), 16h treatment; for DC50: HTRF; for Dmax (%): maximum percentage of degradation
Outline: (§1)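 DC50 from a four-parameter fit of HTRF signal. H1975 mutant-EGFR clones with endogenous EGFR knocked out; 16 h treatment, 10 uM top, 5-fold × 8.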

L858R/T790M/C797S EGFR = biological target: T1, L858R/T790M/C797S EGFR (Homo sapiens, UniProt P00533, C797S/L858R/T790M); assay: EGFR degradation HTRF assay in H1975-clone #25 (LTC) cells; format: cell-based; settings: 16h treatment; for DC50: H1975 # 25-LTC (L858R/T790M/C797S), HTRF; for Dmax: NCI-H1975, H1975 # 25-LTC (L858R/T790M/C797S), maximum percentage of degradation
T1 construct: expressed in transfected cells; host or cells: H1975 clone #25 (lentiviral over-expression, endogenous EGFR knocked out by sgRNA)
T1 sequence (P00533 25-1210 T790M/C797S/L858R): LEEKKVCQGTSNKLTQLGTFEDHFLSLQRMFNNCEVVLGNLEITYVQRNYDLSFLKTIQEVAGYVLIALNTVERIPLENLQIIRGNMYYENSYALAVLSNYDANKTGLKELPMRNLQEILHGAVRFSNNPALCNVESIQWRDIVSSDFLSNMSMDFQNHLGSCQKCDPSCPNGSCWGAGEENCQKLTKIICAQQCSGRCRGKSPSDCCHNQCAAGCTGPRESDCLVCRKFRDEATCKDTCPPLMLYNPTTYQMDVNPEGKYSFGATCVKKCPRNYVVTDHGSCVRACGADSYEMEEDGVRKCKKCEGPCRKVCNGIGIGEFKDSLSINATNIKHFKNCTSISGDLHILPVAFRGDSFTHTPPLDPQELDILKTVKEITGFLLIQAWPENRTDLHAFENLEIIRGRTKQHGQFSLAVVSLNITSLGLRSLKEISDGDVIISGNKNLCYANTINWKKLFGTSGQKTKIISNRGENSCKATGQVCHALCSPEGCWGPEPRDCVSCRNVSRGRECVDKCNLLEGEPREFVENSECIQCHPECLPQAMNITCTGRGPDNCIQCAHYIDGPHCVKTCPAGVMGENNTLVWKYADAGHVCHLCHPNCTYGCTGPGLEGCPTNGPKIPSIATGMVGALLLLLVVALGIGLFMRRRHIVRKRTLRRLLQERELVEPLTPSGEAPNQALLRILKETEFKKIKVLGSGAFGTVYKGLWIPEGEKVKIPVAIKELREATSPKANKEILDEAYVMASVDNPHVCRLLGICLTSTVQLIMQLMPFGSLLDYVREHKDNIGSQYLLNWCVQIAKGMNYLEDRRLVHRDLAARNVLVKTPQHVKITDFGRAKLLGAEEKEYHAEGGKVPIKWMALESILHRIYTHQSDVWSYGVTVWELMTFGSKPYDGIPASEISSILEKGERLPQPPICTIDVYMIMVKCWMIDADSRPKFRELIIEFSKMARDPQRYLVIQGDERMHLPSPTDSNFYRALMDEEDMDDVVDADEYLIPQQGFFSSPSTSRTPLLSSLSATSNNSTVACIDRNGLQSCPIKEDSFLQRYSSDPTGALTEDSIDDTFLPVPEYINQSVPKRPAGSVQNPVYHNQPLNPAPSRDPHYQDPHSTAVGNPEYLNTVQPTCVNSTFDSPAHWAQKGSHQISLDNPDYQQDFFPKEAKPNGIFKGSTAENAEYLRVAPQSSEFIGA
Outline: as §1

| SMILES | DC50 (Del19/T790M/C797S EGFR) | Dmax (%) (Del19/T790M/C797S EGFR) | DC50 (L858R/T790M/C797S EGFR) | Dmax (L858R/T790M/C797S EGFR) |
| --- | --- | --- | --- | --- |
| Cc1cc2cc(n1)-c1cnn(C)c1OCCC[C@@H](C)CN1/C(=N/C2=O)Nc2ccc(N3CCN(C4CCN(c5ccc(C6CCC(=O)NC6=O)nc5)CC4)CC3=O)cc21 (stereo partly drawn) [Example 395, 3-(5-(4-(3-oxo-4-((R,E)-1^1,2^6,7-trimethyl-3-oxo-5^2,5^3-dihydro-1^1H,5^1H-11-oxa-4-aza-5(2,1)-benzo[d]imidazola-2(2,4)-pyridina-1(4,5)-pyrazolacycloundecaphane-5^6-yl)piperazin-1-yl)piperidin-yl-)pyridin-2-yl)piperidine-2,6-dione] | 0.526 nM | 77.96% | 1.02 nM | 84.5% |
| Cc1cc2cc(n1)-c1cnn(C)c1OCCC[C@@H](C)CN1/C(=N/C2=O)Nc2ccc(N(C)C3CCN(C4CCN(c5cc(F)c([C@H]6CCC(=O)NC6=O)c(F)c5)CC4)CC3)cc21 [Example 214, (R)-3-(2,6-difluoro-4-(4-(methyl((R,E)-1^1,2^6,7-trimethyl-3-oxo-5^2,5^3-dihydro-1^1H,5^1H-11-oxa-4-aza-5(2,1)-benzo[d]imidazola-2(2,4)-pyridina-1(4,5)-pyrazolacycloundecaphane-5-yl)amino)-[1,4′-bipiperidin]-1′-yl)phenyl)piperidine-2,6-dione] | 1.32 nM | 72.32% | 2.59 nM | 79.4% |
| Cc1cc2cc(n1)-c1cnn(C)c1OCCC[C@@H](C)CN1/C(=N/C2=O)Nc2ccc(N3C[C@H](C)N(C4CCN(c5cc(F)c([C@H]6CCC(=O)NC6=O)c(F)c5)CC4)C[C@H]3C)cc21 [Example 380, (R)-3-(4-(4-((2S,5R)-2,5-dimethyl-4-((R,E)-1^1,2^6,7-trimethyl-3-oxo-5^2,5^1-dihydro-1^1H,5^1H-11-oxa-4-aza-5(2,1)-benzo[d]imidazola-2(2,4)-pyridina-1(4,5)-pyrazolacycloundecaphane-5^6-yl)piperazin-1-yl)piperidin-1-yl)-2,6-difluorophenyl)piperidine-2,6-dione] | 2.25 nM | 76.83% | 3.35 nM | 80.2% |
| Cc1cc2cc(n1)-c1cnn(C)c1OCCC[C@@H](C)CN1/C(=N/C2=O)Nc2ccc(N(C)C(=O)C3CCN(CCc4cc(F)c([C@H]5CCC(=O)NC5=O)c(F)c4)CC3)cc21 [Example 365, 1-(4-((R)-2,6-dioxopiperidin-3-yl)-3,5-difluorophenethyl)-N-methyl-N—((R,E)-1^1,2^6,7-trimethyl-3-oxo-5^2,5^3-dihydro-1^1H,5^1H-11-oxa-4-aza-5(2,1)-benzo[d]imidazola-2(2,4)-pyridina-(4,5)-pyrazolacycloundecaphane-5^6-yl)piperidine-4-carboxamide] | 0.625 nM | 80.74% | 0.878 nM | 91.1% |
| Cc1cc2cc(n1)-c1cnn(C)c1OCCC[C@@H](C)CN1/C(=N/C2=O)Nc2ccc(C(=O)N3CCC(N(C)CCc4cc(F)c([C@H]5CCC(=O)NC5=O)c(F)c4)CC3)cc21 [Example 299, (R)-3-(2,6-difluoro-4-(2-(methyl(1-((R,E)-1^1,2^6,7-trimethyl-3-oxo-5^2,5^3-dihydro-1^1H,5^1H-11-oxa-4-aza-5(2,1)-benzo[d]imidazola-2(2,4)-pyridina-1(4,5)-pyrazolacycloundecaphane-5^6-carbonyl)piperidin-4-yl)amino)ethyl)phenyl)piperidine-2,6-dione] | 0.611 nM | 66.17% | 0.468 nM | 86.9% |
| Cc1cc2cc(n1)-c1cnn(C)c1OCCC[C@@H](C)CN1/C(=N/C2=O)Nc2ccc(CN3CCC(N4CCN(C(=O)[C@H]5CCN(c6ccc7c(c6)C(=O)N(C6CCC(=O)NC6=O)C7=O)C5)CC4)CC3)cc21 (stereo partly drawn) [Example 216] | 3.02 nM | 82.64% | 9.55 nM | 81.8% |
| Cc1cc2cc(n1)-c1cnn(C)c1OCCC[C@@H](C)CN1/C(=N/C2=O)Nc2ccc(C(=O)NC3CN(CCc4cc(F)c([C@H]5CCC(=O)NC5=O)c(F)c4)C3)cc21 [Example 307, (R,E)-N-(1-(4-((R)-2,6-dioxopiperidin-3-yl)-3,5-difluorophenethyl)azetidin-3-yl)-1^1,2^6,7-trimethyl-3-oxo-5^2,5^3-dihydro-1^1H,5^1H-11-oxa-4-aza-5(2,1)-benzo[d]imidazola-2(2,4)-pyridina-1(4,5)-pyrazola cycloundecaphane-5^6-carboxamide] | 1.28 nM | 52.25% | 1.78 nM | 84.8% |
| COC[C@@H]1CN(c2ccc3c(c2)N2C[C@H]4C[C@@H]4CCOc4c(cnn4C)-c4cc(cc(C)n4)C(=O)/N=C/2N3)CCN1C1CCN(c2cc(F)c([C@H]3CCC(=O)NC3=O)c(F)c2)CC1 [Example 468, (R)-3-(4-(4-((S)-4-((7'S,7^2R,E)-1^1,2^6-dimethyl-3-oxo-5^2,5^3-dihydro-1^1H,5^1H-10-oxa-4-aza-5(2,1)-benzo[d]imidazola-2(2,4)-pyridina-1(4,5)-pyrazola-7(1,2)-cyclopropanacyclodecaphane-5^6-yl)-2-(methoxymethyl)piperazin-1-yl)piperidin-1-yl)-2,6-difluorophenyl)piperidine-2,6-dione] | 2.25 nM | 85.54% | 2.12 nM | 88.1% |
| Cc1cc2cc(n1)-c1cnn(C)c1OCCC[C@@H](C)CN1/C(=N/C2=O)Nc2ccc(N3CCN(C4CCN(c5ccc6c(c5)CN([C@H]5CCC(=O)NC5=O)C6=O)CC4)CC3)cc21 [Example 396, (S)-3-(1-oxo-5-(4-(4-((R,E)-1^1,2^6,7-trimethyl-3-oxo-5^2,53-dihydro-1^1H,5^1H-11-oxa-4-aza-5(2,1)-benzo[d]imidazola-2(2,4)-pyridina-1(4,5)-pyrazolacycloundecaphane-5^6-yl)piperazin-1-yl)piperidin-1-yl)isoindolin-2-yl)piperidine-2,6-dione] | 0.681 nM | 63.49% | 0.622 nM | 83.6% |
| Cc1cc2cc(n1)-c1cnn(C)c1OCCC[C@@H](C)CN1/C(=N/C2=O)Nc2ccc(C(=O)N3CC[C@@H](N(C)CCc4cc(F)c([C@H]5CCC(=O)NC5=O)c(F)c4)C3)cc21 [Example 295, (R)-3-(2,6-difluoro-4-(2-(menthyl((R)-1-((R,E)-1^1,2^6,7-trimethyl-3-oxo-5^2,5^3-dihydro-1^1H,5^1H-11-oxa-4-aza-5(2,1)-benzo[d]imidazola-2(2,4)-pyridina-1(4,5)-pyrazolacycloundecaphane-5^6-carbonyl)pyrrolidin-3-yl)amino)ethyl)phenyl)piperidine-2,6-dione] | 0.313 nM | 78.39% | 0.478 nM | 89.5% |
| Cc1cc2cc(n1)-c1cnn(C)c1OCCC[C@@H](C)CN1/C(=N/C2=O)Nc2ccc(C(=O)NC3CCN(CCc4cc(F)c([C@H]5CCC(=O)NC5=O)c(F)c4)CC3)cc21 [Example 242, (R,E)-N-(1-(4-((R)-2,6-dioxopiperidn-3-yl)-3,5-difluorophenethyl)piperidin-4-yl)-1^1,2^6,7-trimethyl-3-oxo-5^2,5′-dihydro-1^1H,5^1H-li-oxa-4-aza-5(2,1)-benzo[d]imidazola-2(2,4)-pyridina-1(4,5)-pyrazolacycloundecaphane-5^6-carboxamide] | 0.352 nM | 88.18% | 0.321 nM | 93.2% |
| Cc1cc2cc(n1)-c1cnn(C)c1OCCC[C@@H](C)CN1/C(=N/C2=O)Nc2ccc(C(=O)N(C)[C@@H]3CCN(CCc4cc(F)c([C@H]5CCC(=O)NC5=O)c(F)c4)[C@@H](C)C3)cc21 [Example 258, (R,E)-N—((2S,4R)-1-(4-((R)-2,6-dioxopiperidin-3-yl)-3,5-difluorophenethyl)-2-methylpiperidin-4-yl) -N,1^1,2^6,7-tetramethyl-3-oxo-5^2,5^3-dihydro-1^1H,5^1H-11-oxa-4-aza-5(2,1)-benzo[d]imidazola-2(2,4)-pyridina-1(4,5)-pyrazolacycloundecaphane-5^6-carboxamide] | 0.577 nM | 81.96% | 0.381 nM | 88.2% |
| Cc1cc2cc(n1)-c1cnn(C)c1OCCC[C@@H](C)CN1/C(=N/C2=O)Nc2ccc(CN3CCN(C(=O)[C@@H]4CCN(c5cc(F)c([C@H]6CCC(=O)NC6=O)c(F)c5)C4)C[C@@H]3C)cc21 [Example 99] | 0.7 nM | 75.6% | 1.4 nM | 82.7% |
| Cc1cc2cc(n1)-c1cnn(C)c1OCCC[C@@H](C)CN1/C(=N/C2=O)Nc2ccc(C(=O)N(C)C3CCN(CC4CN(c5cc(F)c([C@H]6CCC(=O)NC6=O)c(F)c5)C4)CC3)cc21 [Example 286, (R,E)-N-(1-((1-(4-((R)-2,6-dioxopiperidin-3-yl)-3,5-difluorophenyl)azetidin-3-yl)methyl)piperidin-4-yl)-N,1^1,2^6,7-tetramethyl-3-oxo-5^2,5^3-dihydro-1^1H,5^1H-11-oxa-4-aza-5(2,1)-benzo[d]imidazola-2(2,4)-pyridina-1(4,5)-pyrazolacycloundecaphane-5^6-carboxamide] | 0.652 nM | 72.5% | 0.45 nM | 91.2% |
| Cc1cc2cc(n1)-c1cnn(C)c1OCCC[C@@H](C)CN1/C(=N/C2=O)Nc2ccc(N3CCC(C(=O)N4CCC(Nc5cc(F)c([C@H]6CCC(=O)NC6=O)c(F)c5)CC4)CC3)cc21 [Example 402, (R)-3-(2,6-difluoro-4-((1-(1-((R,E)-1^1,2^6,7-trimethyl-3-oxo-5^2,53-dihydro-1^1H,5^1H-11-oxa-4-aza-5(2,1)-benzo[d]imidazola-2(2,4)-pyridina-1(4,5)-pyrazolacycloundecaphane-5^6-yl)piperidine-4-carbonyl)piperidin-4-yl)amino)phenyl)piperidine-2,6-dione] | 0.525 nM | 82.56% | 0.633 nM | 88.3% |
